Data as given in ChEMBL document CHEMBL3232991, “New polyfunctional imidazo[4,5-C]pyridine motifs: synthesis, crystal studies, docking studies and antimicrobial evaluation” (Eur J Med Chem, 2014).
≈ marks a conversion by molar mass, not a printed value. Calls of active or inactive are those of the source. No cut-off for these calls is given here.

Tests used:
Candida albicans [1] = assay: Antifungal activity against Candida albicans MTCC 183 assessed as diameter of growth inhibition zone at 500 ug/ml after 4 days by agar disc diffusion method; type: functional
Bacillus cereus [2] = assay: Antibacterial activity against Bacillus cereus NCIM 2155 assessed as diameter of growth inhibition zone at 500 ug/ml after 20 hrs by agar disc diffusion method; type: functional
Candida albicans [3] = assay: Antifungal activity against Candida albicans MTCC 183 assessed as diameter of growth inhibition zone at 1000 ug/ml after 4 days by agar disc diffusion method; type: functional
Pseudomonas aeruginosa [4] = assay: Antibacterial activity against Pseudomonas aeruginosa MTCC 4727 assessed as diameter of growth inhibition zone at 500 ug/ml after 20 hrs by agar disc diffusion method; type: functional
Escherichia coli [5] = assay: Antibacterial activity against Escherichia coli NCIM 2931 assessed as diameter of growth inhibition zone at 1000 ug/ml after 20 hrs by agar disc diffusion method; type: functional; details: NCIM 2931, 20 h, read-out: DIZ
Saccharomyces cerevisiae [6] = assay: Antifungal activity against Saccharomyces cerevisiae NCIM 3044 assessed as diameter of growth inhibition zone at 500 ug/ml after 4 days by agar disc diffusion method; type: functional
Escherichia coli [7] = assay: Antibacterial activity against Escherichia coli NCIM 2931 assessed as diameter of growth inhibition zone at 500 ug/ml after 20 hrs by agar disc diffusion method; type: functional; details: NCIM 2931, 20 h, read-out: DIZ
Bacillus cereus [8] = assay: Antibacterial activity against Bacillus cereus NCIM 2155 assessed as diameter of growth inhibition zone at 1000 ug/ml after 20 hrs by agar disc diffusion method; type: functional
Pseudomonas aeruginosa [9] = assay: Antibacterial activity against Pseudomonas aeruginosa MTCC 4727 assessed as diameter of growth inhibition zone at 1000 ug/ml after 20 hrs by agar disc diffusion method; type: functional
Staphylococcus aureus [10] = assay: Antibacterial activity against Staphylococcus aureus MTCC 4102 assessed as diameter of growth inhibition zone at 500 ug/ml after 20 hrs by agar disc diffusion method; type: functional
Saccharomyces cerevisiae [11] = assay: Antifungal activity against Saccharomyces cerevisiae NCIM 3044 assessed as growth inhibition after 48 hrs by broth microdilution method; type: functional, organism-based; details: NCIM 3044, 48 h
Staphylococcus aureus [12] = assay: Antibacterial activity against Staphylococcus aureus MTCC 4102 assessed as diameter of growth inhibition zone at 1000 ug/ml after 20 hrs by agar disc diffusion method; type: functional
Escherichia coli [13] = assay: Antibacterial activity against Escherichia coli NCIM 2931 assessed as growth inhibition after 24 hrs by broth microdilution method; type: functional, organism-based; details: NCIM 2931, 24 h
Saccharomyces cerevisiae [14] = assay: Antifungal activity against Saccharomyces cerevisiae NCIM 3044 assessed as diameter of growth inhibition zone at 1000 ug/ml after 4 days by agar disc diffusion method; type: functional
Staphylococcus aureus [15] = assay: Antibacterial activity against Staphylococcus aureus MTCC 4102 assessed as growth inhibition after 24 hrs by broth microdilution method; type: functional, organism-based; details: MTCC 4102, 24 h

Compound: N#CC1CCCN(c2ncc(-c3cccc(F)c3)c3[nH]c(-c4ccco4)nc23)C1 (stereo not given)
- diameter of the inhibition zone (DIZ) (Candida albicans [1]): inactive
- diameter of the inhibition zone (DIZ) (Bacillus cereus [2]): inactive
- diameter of the inhibition zone (DIZ) (Candida albicans [3]): inactive
- diameter of the inhibition zone (DIZ) (Pseudomonas aeruginosa [4]): inactive
- zone of inhibition at 1000 µg/mL (Escherichia coli [5]): 16 mm
- zone of inhibition at 500 µg/mL (Saccharomyces cerevisiae [6]; NCIM 3044, 96 h, read-out: DIZ): 6.9 mm
- zone of inhibition at 500 µg/mL (Escherichia coli [7]): 8 mm
- diameter of the inhibition zone (DIZ) (Bacillus cereus [8]): inactive
- diameter of the inhibition zone (DIZ) (Pseudomonas aeruginosa [9]): inactive
- diameter of the inhibition zone (DIZ) (Staphylococcus aureus [10]): inactive
- IC50 (Saccharomyces cerevisiae [11]): 98.8 µg/mL (≈ 255 µM)
- MIC (Saccharomyces cerevisiae [11]): 296 µg/mL (≈ 765 µM)
- diameter of the inhibition zone (DIZ) (Staphylococcus aureus [12]): inactive
- IC50 (Escherichia coli [13]): 74.5 µg/mL (≈ 192 µM)
- MIC (Escherichia coli [13]): 198 µg/mL (≈ 510 µM)
- zone of inhibition at 1000 µg/mL (Saccharomyces cerevisiae [14]; NCIM 3044, 96 h, read-out: DIZ): 15 mm

Compound: COc1cc(-c2cnc(N3CCC(C#N)CC3)c3nc(Cc4ccc(Cl)cc4Cl)[nH]c23)ccc1F
- diameter of the inhibition zone (DIZ) (Candida albicans [1]): inactive
- diameter of the inhibition zone (DIZ) (Bacillus cereus [2]): inactive
- diameter of the inhibition zone (DIZ) (Candida albicans [3]): inactive
- zone of inhibition at 500 µg/mL (Pseudomonas aeruginosa [4]; MTCC 4727, 20 h, read-out: DIZ): 3.5 mm
- zone of inhibition at 1000 µg/mL (Escherichia coli [5]): 9 mm
- diameter of the inhibition zone (DIZ) (Saccharomyces cerevisiae [6]): inactive
- zone of inhibition at 500 µg/mL (Escherichia coli [7]): 4.1 mm
- diameter of the inhibition zone (DIZ) (Bacillus cereus [8]): inactive
- IC50 (Staphylococcus aureus [15]): 100 µg/mL (≈ 196 µM)
- MIC (Staphylococcus aureus [15]): 200 µg/mL (≈ 392 µM)
- zone of inhibition at 1000 µg/mL (Pseudomonas aeruginosa [9]; MTCC 4727, 20 h, read-out: DIZ): 8 mm
- zone of inhibition at 500 µg/mL (Staphylococcus aureus [10]; MTCC 4102, 20 h, read-out: DIZ): 10.5 mm
- zone of inhibition at 1000 µg/mL (Staphylococcus aureus [12]; MTCC 4102, 20 h, read-out: DIZ): 23 mm
- diameter of the inhibition zone (DIZ) (Saccharomyces cerevisiae [14]): inactive
